Consider two compounds from article PMC10387993, “New pyrimidine-N-β-D-glucosides: synthesis, biological evaluation, and molecular docking investigations” (Turkish Journal of Chemistry, 2023).

≈ marks a conversion by molar mass, not a printed value. Where two headings read alike, the source gives them in different places.

For data set [1], the system named is normal FL cells. Description: in vitro. The format is cell-based. Particulars: FL normal cells, MTT. The method, then:
(§1) The cell lines were cultured in a cell medium (Dulbecco’s modified eagle’s or RPMI 1640) enriched with 10% (v/v) fetal bovine serum and 2% (v/v) Penicillin-Streptomycin (10,000 U/mL). First, old medium was removed out of the flask when the cells reached approximately 80% confluence. Next, cells were taken from the flasks surface using trypsin-EDTA solution and then subjected to centrifugation. Following, the cell pellet was suspended with fresh media and was inoculated into wells.
(§2) A cell suspension containing approximately 1 × 10^4 cells in 100 μL was seeded into the wells of 96-well culture plates. […]. The final volume of the wells was set to 200 μL by medium. Cell proliferation assay was evaluated by MTT (yellow tetrazolium MTT (3-(4,5-dimethylthiazolyl-2)-2,5-diphenyltetrazolium bromide) methods. Briefly, an MTT stock solution (5 mg of MTT/mL of distilled water) was filtered and kept at −20 °C until use. The cells were exposed to an MTT reagent (consisting of one parts of MTT stock solutions and nine parts of fresh RPMI 1640 without phenol red) for 4 h to form MTT formazan dye followed by the dye dissolved in DMSO with Sorenson’s buffer for 30 min at room temperature and then the plate was measured at 560 nm, with 690 nm as a reference interval, using a microplate reader. Each experiment was repeated at least three times for each cell line.
(§3) IC50 value is a concentration that inhibits half of the cells in vitro. The half maximal inhibitory concentration (IC50) of the test and control compounds was calculated using XLfit5 or excel spreadsheet and represent in μM at 95% confidence intervals. The proliferation assay results were expressed as the percent inhibition according to the following formula: % Inhibition = [1 - (Absorbance of Treatments /Absorbance of DMSO) × 100]. Three dose response parameters (GI50, TGI, LC50) were calculated according to the following formulas using the absorbance measurements of time zero (Tz), control growth (C), and test growth in the presence of drug (Ti). Growth inhibition of 50% (GI50) was calculated from [(Ti-Tz)/(C-Tz)] × 100 = 50, which is the drug concentration resulting in a 50% reduction in the net growth increase in control cells during the drug incubation. The drug concentration resulting in total growth inhibition (TGI) was calculated from Ti = Tz. The LC50 indicating a net loss of cells following treatment was calculated from [(Ti-Tz)/Tz] × 100 = −50.

Data set [2] relates to calf thymus DNA (CT-DNA). Particulars: CT-DNA binding experiments in the literature ref [32]–[33]; cited from earlier work.
Data set [3] deals with Hep3B. Description: cells. In kind it is cell-based. The conditions noted are these: MTT. As to the method:
as §1, §2, §3

Data set [4] concerns HeLa. Kind of data set: cells. The format is cell-based. The conditions noted are these: MTT. The method, then:
as §1, §2, §3

Data set [5] concerns C6 (Rat brain glioma). Description: cells. Particulars: C6, MTT. In kind it is cell-based. The method, then:
as §1, §2, §3

The test system of data set [6] is A549. Kind of data set: cells. The format is cell-based. The conditions noted are these: A549, MTT. The method, then: as §1, §2, §3
Data set [7] deals with MCF7. Kind of data set: cells. Particulars: MCF7, MTT. In kind it is cell-based. The method, then: as §1, §2, §3
The subject of data set [8] is HT29. Kind of data set: cells. In kind it is cell-based. The conditions noted are these: HT29, MTT. As to the method:
as §1, §2, §3

Data set [9] can be described thus: LDH cytotoxic activity assay, HT29. The format is cell-based. The conditions noted are these: human, HT29 cells, HT29, 25 μg/mL. As to the method:
as §1
(§4) Approximately 5 × 10^3 cells in 100 μL were placed into 96-well plates as triplicates and treated with 25, 50, 75, and 100 μg/mL concentrations of test compounds at 37 °C with 5% CO2 for 24 h. LDH activity was obtained by determining absorbance at 492–630 nm using a microplate reader.

Data set [10] is described as follows: LDH cytotoxic activity assay, MCF7. The format is cell-based. Particulars: human, MCF7 cells, MCF7, 25 μg/mL. As to the method: as §1, §4
A short description of data set [11]: LDH cytotoxic activity assay, C6. The format is cell-based. Particulars: rat, C6 glioma cells, C6, 25 μg/mL. The method, then: as §1, §4
Data set [12] can be described thus: LDH cytotoxic activity assay, FL. In kind it is cell-based. Particulars: human, FL cells (normal cells), FL, 25 μg/mL. As to the method: as §1, §4
The nature of data set [13]: LDH cytotoxic activity assay, A549. The conditions noted are these: human, A549 cells, A549, 25 μg/mL. The format is cell-based. As to the method:
as §1, §4

Data set [14] in a line: LDH cytotoxic activity assay, HeLa. The format is cell-based. Particulars: human, HeLa cells, 25 μg/mL. As to the method:
as §1, §4

A short description of data set [15]: LDH cytotoxic activity assay, Hep3B. In kind it is cell-based. Particulars: human, Hep3B cells, 25 μg/mL. As to the method: as §1, §4

As for `N.N.[Cl][Pt][Cl]` [Cisplatin, cisplatin, reference compound], the concentration for half-maximal inhibition (IC50) in data set [1] amounted to 52.79 µg/mL; in data set [3], 48.69 µg/mL; in [4], 50.29 µg/mL; in data set [5], 33.08 µg/mL; in [6], 60.49 µg/mL; in [7], 63.79 µg/mL. The IC50 in data set [8] stood at 40.39 µg/mL. For the same compound, in data set [2], the “binding constant (Kb)” value is 57300 M⁻¹.
Regarding `O=c1[nH]cc(F)c(=O)[nH]1` [Compound 5FU, 5-fluorouracil, reference compound], the IC50 in data set [1] (read-out: IC50) stood at 59.1 µg/mL (≈ 454 µM); in [3] (Homo sapiens, read-out: IC50), 62.9 µg/mL (≈ 483 µM); in data set [4] (Homo sapiens, read-out: IC50), 61.6 µg/mL (≈ 473 µM); in data set [5] (Rattus norvegicus, read-out: IC50), 54.3 µg/mL (≈ 417 µM); in data set [6] (Homo sapiens, read-out: IC50) it was 69.8 µg/mL (≈ 537 µM); in data set [7] (Homo sapiens, read-out: IC50) it was 74.2 µg/mL (≈ 570 µM). The IC50 in [8] (Homo sapiens, HT-29, read-out: IC50) is 65.2 µg/mL (≈ 501 µM). In addition, the cytotoxicity at 24 h, 25 μg/mL was determined as 7.91% in data set [9]; 7.69% in data set [10]; 10% in [11]; 8.44% in data set [12]; 9.19% in data set [13]; 8.83% in data set [14]. Moreover, in data set [15], the cytotoxicity at 24 h, 25 μg/mL amounted to 9.67%. Also, the “binding constant (Kb)” value in [2] was 97000 M⁻¹.
